28 compounds from patent publication US20250179061A1 (SIRONAX LTD., priority 2022, published 2025) can be followed below.

The assay deals with HT-29 cells. Put plainly: HT-29 necroptosis cell viability assay (TNF-α/SMAC mimetic/zVAD-FMK, CellTiter-Glo). The class given is cell-based. The following applies: Homo sapiens, HT-29, HT-29 necroptosis cell viability, IC50 class symbols; read-out: Activity. The essentials: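 Necroptosis was triggered by TNF-α (10 ng/ml), SMAC mimetic (6 μM) and zVAD-FMK (10 μM) in serum-free medium during 20 h compound exposure (10 concentrations, threefold steps) of HT-29 cells. IC50 from duplicate dose-responses uses CellTiter-Glo ATP luminescence as viability read-out.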

A value given as a limit tells only on which side of the number the result lay.

Turning to `N#CC1CN(c2cc(Oc3ccc(-n4ncn(Cc5c(F)cccc5F)c4=O)cc3)ccn2)CC1O` (stereo not shown) [Example 264, 1-(4-(4-(4-(2,6-difluorobenzyl)-5-oxo-4,5-dihydro-1H-1,2,4-triazol-1-yl)phenoxy)pyridin-2-yl)-4-hydroxypyrrolidine-3-carbonitrile], the IC50 is below 100 nM.

`CC1(CO)CCN(c2cc(Oc3ccc(-n4ncn(Cc5c(F)cccc5F)c4=O)cc3)ccn2)C1` (stereo not shown) [Example 265, 4-(2,6-difluorobenzyl)-2-(4-((2-(3-(hydroxymethyl)-3-methylpyrrolidin-1-yl)pyridin-4-yl)oxy)phenyl)-2,4-dihydro-3H-1,2,4-triazol-3-one]: the IC50 fell in the range of 100 to 1000 nM.

As for `CCOC1CN(c2cc(Oc3ccc(-n4ncn(Cc5c(F)cccc5F)c4=O)cc3)c(C)cn2)C1` [Example 266, 4-(2,6-difluorobenzyl)-2-(4-((2-(3-ethoxyazetidin-1-yl)-5-methylpyridin-4-yl)oxy)phenyl)-2,4-dihydro-3H-1,2,4-triazol-3-one], the IC50 was below 100 nM.

With `Cc1cnc(NC23CC(C#N)(C2)C3)cc1Oc1ccc(-n2ncn(Cc3c(F)cccc3F)c2=O)cc1Cl` [Example 267, 3-((4-(2-chloro-4-(4-(2,6-difluorobenzyl)-5-oxo-4,5-dihydro-1H-1,2,4-triazol-1-yl)phenoxy)-5-methylpyridin-2-yl)amino)bicyclo[1.1.1]pentane-1-carbonitrile], the IC50 was below 100 nM.

In the case of `C[C@H]1CCCN1c1cc(Oc2ccc(-n3ncn(Cc4c(F)cccc4F)c3=O)cc2)ccn1` [Example 268, (S)-4-(2,6-difluorobenzyl)-2-(4-((2-(2-methylpyrrolidin-1-yl)pyridin-4-yl)oxy)phenyl)-2,4-dihydro-3H-1,2,4-triazol-3-one], the IC50 is below 100 nM.

Regarding `O=c1n(Cc2c(F)cccc2F)cnn1-c1ccc(Oc2ccnc(N3CCOC4(COC4)C3)c2)cc1` [Example 269, 2-(4-((2-(2,5-dioxa-8-azaspiro[3.5]nonan-8-yl)pyridin-4-yl)oxy)phenyl)-4-(2,6-difluorobenzyl)-2,4-dihydro-3H-1,2,4-triazol-3-one], the IC50 lay within 100 to 1000 nM.

Regarding `N#CC12CC(Nc3cc(Oc4ccc(-n5ncn(Cc6c(F)cccc6F)c5=O)cc4F)c(Cl)cn3)(C1)C2` [Example 270, 3-((5-chloro-4-(4-(4-(2,6-difluorobenzyl)-5-oxo-4,5-dihydro-1H-1,2,4-triazol-1-yl)-2-fluorophenoxy)pyridin-2-yl)amino)bicyclo[1.1.1]pentane-1-carbonitrile], the IC50 was below 100 nM.

Consider `Cc1c(Oc2ccc(-n3ncn(Cc4c(F)cccc4F)c3=O)cc2F)ccnc1NC12CC(C#N)(C1)C2` [Example 271, 3-((4-(4-(4-(2,6-difluorobenzyl)-5-oxo-4,5-dihydro-1H-1,2,4-triazol-1-yl)-2-fluorophenoxy)-3-methylpyridin-2-yl)amino)bicyclo[1.1.1]pentane-1-carbonitrile], for which the IC50 is below 100 nM.

Consider `N#CC12CC(Nc3cc(Oc4ccc(-n5ncn(Cc6c(F)cccc6F)c5=O)cc4Cl)c(F)cn3)(C1)C2` [Example 272, 3-((4-(2-chloro-4-(4-(2,6-difluorobenzyl)-5-oxo-4,5-dihydro-1H-1,2,4-triazol-1-yl)phenoxy)-5-fluoropyridin-2-yl)amino)bicyclo[1.1.1]pentane-1-carbonitrile], for which the IC50 was below 100 nM.

As for `Cc1c(Oc2ccc(-n3ncn(Cc4c(F)cccc4F)c3=O)cc2)ccnc1N1CC2(CCOCC2)C1` [Example 273, 4-(2,6-difluorobenzyl)-2-(4-((3-methyl-2-(7-oxa-2-azaspiro[3.5]nonan-2-yl)pyridin-4-yl)oxy)phenyl)-2,4-dihydro-3H-1,2,4-triazol-3-one], the IC50 is 100 to 1000 nM.

In the case of `Cc1cc(-n2ncn(Cc3c(F)cccc3F)c2=O)ccc1Oc1ccnc(N2CC3(CCOCC3)C2)c1` [Example 274, 2-(4-((2-(7-oxa-2-azaspiro[3.5]nonan-2-yl)pyridin-4-yl)oxy)-3-methylphenyl)-4-(2,6-difluorobenzyl)-2,4-dihydro-3H-1,2,4-triazol-3-one], the IC50 was 1000 to 10000 nM.

In the case of `O=c1n(Cc2c(F)cccc2F)cnn1-c1ccc(Oc2ccnc(N3CC(OC(F)(F)F)C3)c2)cc1` [Example 275, 4-(2,6-difluorobenzyl)-2-(4-((2-(3-(trifluoromethoxy)azetidin-1-yl)pyridin-4-yl)oxy)phenyl)-2,4-dihydro-3H-1,2,4-triazol-3-one], the IC50 was 100 to 1000 nM.

`N#CC1CCCN(c2cc(Oc3ccc(-n4ncn(Cc5c(F)cccc5F)c4=O)cc3)ccn2)C1` (stereo not shown) [Example 277, 1-(4-(4-(4-(2,6-difluorobenzyl)-5-oxo-4,5-dihydro-1H-1,2,4-triazol-1-yl)phenoxy)pyridin-2-yl)piperidine-3-carbonitrile]: the IC50 lay within 100 to 1000 nM.

Consider `N#CC1(CO)CN(c2cc(Oc3ccc(-n4ncn(Cc5c(F)cccc5F)c4=O)cc3)ccn2)C1` [Example 278, 1-(4-(4-(4-(2,6-difluorobenzyl)-5-oxo-4,5-dihydro-1H-1,2,4-triazol-1-yl)phenoxy)pyridin-2-yl)-3-(hydroxymethyl)azetidine-3-carbonitrile], for which the IC50 fell in the range of 100 to 1000 nM.

On to `O=c1n(Cc2c(F)cccc2F)cnn1-c1ccc(Oc2ccnc(NCC3CCO3)c2)cc1` (stereo not shown) [Example 279, 4-(2,6-difluorobenzyl)-2-(4-((2-((oxetan-2-ylmethyl)amino)pyridin-4-yl)oxy)phenyl)-2,4-dihydro-3H-1,2,4-triazol-3-one], for which the IC50 was 100 to 1000 nM.

For `O=c1n(Cc2c(F)cccc2F)cnn1-c1ccc(Oc2ccnc(N3CC(F)(C4CC4)C3)c2)cc1` [Example 280, 2-(4-((2-(3-cyclopropyl-3-fluoroazetidin-1-yl)pyridin-4-yl)oxy)phenyl)-4-(2,6-difluorobenzyl)-2,4-dihydro-3H-1,2,4-triazol-3-one], the IC50 fell in the range of 100 to 1000 nM.

On to `CC1CN(c2cc(Oc3ccc(-n4ncn(Cc5c(F)cccc5F)c4=O)cc3)ccn2)CC1C#N` (stereo not shown) [Example 281, 1-(4-(4-(4-(2,6-difluorobenzyl)-5-oxo-4,5-dihydro-1H-1,2,4-triazol-1-yl)phenoxy)pyridin-2-yl)-4-methylpyrrolidine-3-carbonitrile], for which the IC50 is below 100 nM.

Regarding `C[C@H]1C[C@@H](C#N)CN1c1cc(Oc2ccc(-n3ncn(Cc4c(F)cccc4F)c3=O)cc2)ccn1` [Example 282, (3R,5S)-1-(4-(4-(4-(2,6-difluorobenzyl)-5-oxo-4,5-dihydro-1H-1,2,4-triazol-1-yl)phenoxy)pyridin-2-yl)-5-methylpyrrolidine-3-carbonitrile], the IC50 was below 100 nM.

Turning to `O=c1n(Cc2c(F)cccc2F)cnn1-c1ccc(Oc2cc(N3CCOCC3)ncc2F)c(F)c1` [Example 283, 4-(2,6-difluorobenzyl)-2-(3-fluoro-4-((5-fluoro-2-morpholinopyridin-4-yl)oxy)phenyl)-2,4-dihydro-3H-1,2,4-triazol-3-one], the IC50 was below 100 nM.

As for `C[C@H]1C[C@@H](C#N)CN1c1cc(Oc2ccc(-n3ncn(Cc4c(F)cccc4F)c3=O)cc2F)c(F)cn1` [Example 284, (3R,5S)-1-(4-(4-(4-(2,6-difluorobenzyl)-5-oxo-4,5-dihydro-1H-1,2,4-triazol-1-yl)-2-fluorophenoxy)-5-fluoropyridin-2-yl)-5-methylpyrrolidine-3-carbonitrile], the IC50 is below 100 nM.

`O=c1n(Cc2c(F)cccc2F)cnn1-c1ccc(Oc2cncc(N3CC4(CCOCC4)C3)c2)cc1` [Example 285, 2-(4-((5-(7-oxa-2-azaspiro[3.5]nonan-2-yl)pyridin-3-yl)oxy)phenyl)-4-(2,6-difluorobenzyl)-2,4-dihydro-3H-1,2,4-triazol-3-one]: the IC50 was below 100 nM.

`CC1(C#N)CN(c2cccnc2OCc2ccc(-n3ncn(Cc4c(F)cccc4F)c3=O)cc2)C1` [Example 286, 1-(2-((4-(4-(2,6-difluorobenzyl)-5-oxo-4,5-dihydro-1H-1,2,4-triazol-1-yl)benzyl)oxy)pyridin-3-yl)-3-methylazetidine-3-carbonitrile]: the IC50 lay in the range of 100 to 1000 nM.

On to `O=c1n(Cc2c(F)cccc2F)cnn1-c1ccc(Oc2ccnc(N3CC(OC(F)F)C3)c2)cc1` [Example 287, 4-(2,6-difluorobenzyl)-2-(4-((2-(3-(difluoromethoxy)azetidin-1-yl)pyridin-4-yl)oxy)phenyl)-2,4-dihydro-3H-1,2,4-triazol-3-one], for which the IC50 was below 100 nM.

With `O=c1n(Cc2c(F)ccc(F)c2F)cnn1-c1ccc(Oc2ccnc(N3CC4(CCOCC4)C3)c2)cc1` [Example 288, 2-(4-((2-(7-oxa-2-azaspiro[3.5]nonan-2-yl)pyridin-4-yl)oxy)phenyl)-4-(2,3,6-trifluorobenzyl)-2,4-dihydro-3H-1,2,4-triazol-3-one], the IC50 was 100 to 1000 nM.

For the compound `C[C@H]1C[C@@H](O)CN1c1cc(Oc2ccc(-n3ncn(Cc4c(F)cccc4F)c3=O)cc2)ccn1` [Example 289, 4-(2,6-difluorobenzyl)-2-(4-((2-((2S,4R)-4-hydroxy-2-methylpyrrolidin-1-yl)pyridin-4-yl)oxy)phenyl)-2,4-dihydro-3H-1,2,4-triazol-3-one], the IC50 is below 100 nM.

Turning to `Cc1cnc(Cl)cc1Oc1ccc(-n2ncn(Cc3c(F)cccc3F)c2=O)cc1Cl` [Example 290, 2-(3-chloro-4-((2-chloro-5-methylpyridin-4-yl)oxy)phenyl)-4-(2,6-difluorobenzyl)-2,4-dihydro-3H-1,2,4-triazol-3-one], the IC50 is below 100 nM.

Turning to `C[C@H]1[C@@H](NC(=O)OC(C)(C)C)CN1c1cc(Oc2ccc(-n3ncn(Cc4c(F)cccc4F)c3=O)cc2F)c(F)cn1` [Example 291, tert-butyl ((2S,3S)-1-(4-(4-(4-(2,6-difluorobenzyl)-5-oxo-4,5-dihydro-1H-1,2,4-triazol-1-yl)-2-fluorophenoxy)-5-fluoropyridin-2-yl)-2-methylazetidin-3-yl)carbamate], the IC50 is below 100 nM.

In the case of `CC1(C#N)CN(c2cc(Oc3ccc(-n4nc5n(c4=O)C(c4ccccc4)CC5)cc3F)c(F)cn2)C1` (stereo not shown) [Example 292, 1-(5-fluoro-4-(2-fluoro-4-(3-oxo-5-phenyl-6,7-dihydro-3H-pyrrolo[2,1-c][1,2,4]triazol-2(5H)-yl)phenoxy)pyridin-2-yl)-3-methylazetidine-3-carbonitrile], the IC50 is below 100 nM.
